The values that follow come from ChEMBL document CHEMBL3046250, “Synthesis and anticonvulsant evaluation of 3-substituted-4-(4-hexyloxyphenyl)-4H-1,2,4-triazoles” (Med Chem Res, 2009).

Where only a bound is given, the exact number is not on record here.

Data set [1] can be described thus: Protective index, ratio of TD50 for neurotoxicity to ED50 for anticonvulsant activity in ip dosed Mus musculus C57B/6 (mouse). The conditions noted are these: in vivo, read-out: Ratio TD50/ED50. The data set is classed as toxicity, organism-based.
Data set [2] concerns Mus musculus. Briefly: Anticonvulsant activity in ip dosed Mus musculus C57B/6 (mouse) assessed as protection against maximal electroshock-induced seizures. The data set is classed as functional. The settings on record: C57B/6, ip. In general terms: Protection in the maximal electroshock model is a classic sign of anticonvulsant action.
The nature of data set [3]: Neurotoxicity in ip dosed Mus musculus C57B/6 (mouse) assessed as inability to maintain equilibrium measured after 30 min by rotarod test. The conditions noted are these: in vivo. In kind it is toxicity, organism-based. (In general: In the rotarod test animals must keep their balance on a rotating rod.)
Data set [4] deals with Mus musculus. Briefly: Anticonvulsant activity in Mus musculus (mouse) assessed protection against subcutaneous pentylenetetrazole-induced seizures. The data set is classed as functional. The settings on record: sc.
A short description of data set [5]: Neurotoxicity in Mus musculus (mouse) by rotarod test. In kind it is toxicity, organism-based. The settings on record: in vivo.

Take `CCCCCCOc1ccc2c(c1)CCc1nncn1-2`: in data set [1], the selectivity ratio came out at 2.2.
What is called ED50 is the dose at which the effect has come halfway, by size or by number of responders. Broadly, the TD50 is the 50% point of the dose-response relation for the toxic effect studied. As for `CCCCCCOc1ccc(-n2cnnc2-c2ccccc2F)cc1`, in the data set with Mus musculus [2], the ED50 amounted to 20.2 mg/kg. In addition, in data set [3], the TD50 at 0.5 h came out at 101 mg/kg. Moreover, the selectivity ratio in data set [1] worked out at 5.
`CCCCCCOc1ccc(-n2cnnc2-c2ccccc2)cc1`: the ED50 in the data set with Mus musculus [2] was determined as 19 mg/kg. For the same compound, in data set [3], the TD50 at 0.5 h is 137 mg/kg. Also, the selectivity ratio in data set [1] came out at 7.2.
As for `CCCCCCOc1ccc(-n2cnnc2CC)cc1`, the selectivity ratio in data set [1] was found to be 4.7.
Take `CCCCCCOc1ccc(-n2cnnc2)cc1`: the ED50 in the data set on Mus musculus [2] is 9.8 mg/kg. Besides, the TD50 at 0.5 h in data set [3] was found to be 112 mg/kg. The selectivity ratio in data set [1] came to 11.4.
With `CCCCCCOc1ccc(-n2cnnc2C)cc1`, in the data set with Mus musculus [2], the ED50 amounted to 22.8 mg/kg. The TD50 at 0.5 h in data set [3] turned out to be 114 mg/kg. The selectivity ratio in data set [1] worked out at 4.9.
Take `CCCCCCOc1ccc(-n2cnnc2-c2ccc(Cl)cc2)cc1`: the ED50 in the data set with Mus musculus [2] came to 19.7 mg/kg. Besides, the TD50 at 0.5 h in data set [3] is 137 mg/kg. The selectivity ratio in data set [1] stood at 6.9.
On to `CCCCCCCc1nncn1-c1ccc(OCCCCCC)cc1`, for which the ED50 in the data set on Mus musculus [2] was > 40 mg/kg.
Consider `CCCCCCOc1ccc(-n2cnnc2-c2ccc(C)cc2)cc1`, for which the 50% effective dose (ED50) in the data set with Mus musculus [2] was determined as 11.4 mg/kg. Further, in data set [3], the TD50 at 0.5 h was 101 mg/kg. Also, the selectivity ratio in data set [1] was 8.8.
With `CCCCCCOc1ccc(-n2cnnc2-c2ccc(OC)cc2)cc1`, in the data set on Mus musculus [2], the ED50 was 15.8 mg/kg. For the same compound, in data set [3], the TD50 at 0.5 h came out at 120 mg/kg. In addition, in data set [1], the selectivity ratio is 7.6.
For the compound `CCCCCCOc1ccc(-n2cnnc2CCC)cc1`, the ED50 with Mus musculus [2] worked out at 5.7 mg/kg. Besides, the TD50 at 0.5 h in data set [3] was determined as 65.7 mg/kg. For the same compound, the selectivity ratio in data set [1] was 11.5.
As for `CCCCCCOc1ccc(-n2cnnc2CCCC)cc1`, the ED50 in the data set on Mus musculus [2] amounted to 13.6 mg/kg. Moreover, the TD50 at 0.5 h in data set [3] was 110 mg/kg. Besides, the selectivity ratio in data set [1] was found to be 8.1.
As for `CCCCCCCCCc1nncn1-c1ccc(OCCCCCC)cc1`, in the data set with Mus musculus [2], the ED50 is > 40 mg/kg.
As to `CCCCCCOc1ccc(-n2cnnc2CCCCCC)cc1`, in the data set on Mus musculus [2], the ED50 was > 40 mg/kg.
Consider `CCCCCCOc1ccc(-n2cnnc2CCCCC)cc1`, for which the 50% effective dose (ED50) in the data set on Mus musculus [2] amounted to 32.8 mg/kg. In addition, the TD50 at 0.5 h in data set [3] worked out at 189 mg/kg. The selectivity ratio in data set [1] worked out at 5.8.
Take `c1ccc(COc2ccc3c(c2)CCc2nncn2-3)cc1`: in the data set with Mus musculus [4], the ED50 came out at 24 mg/kg.
As to `CCCCCCOc1ccc(-n2cnnc2CCc2ccccc2)cc1`, in the data set on Mus musculus [2], the ED50 was found to be 27.4 mg/kg. In addition, in data set [3], the TD50 at 0.5 h worked out at 158 mg/kg. For the same compound, in data set [1], the selectivity ratio was 5.7.
Regarding `CCCCCCOc1ccc(-n2cnnc2-c2cccc(F)c2)cc1`, the 50% effective dose (ED50) in the data set on Mus musculus [2] was 27.4 mg/kg. Besides, the TD50 at 0.5 h in data set [3] stood at 104 mg/kg. Further, in data set [1], the selectivity ratio was 3.8.
Turning to `O=C1CCc2cc(OCc3ccccc3)ccc2N1`, in data set [5], the TD50 was > 300 mg/kg.
For `CCCCCCOc1ccc(-n2cnnc2-c2ccc(F)cc2)cc1`, the ED50 in the data set with Mus musculus [2] is 22 mg/kg. In addition, the TD50 at 0.5 h in data set [3] amounted to 91.3 mg/kg. In addition, in data set [1], the selectivity ratio was 4.2.
On to `CCCCCCOc1ccc(-n2cnnc2Cc2ccccc2)cc1`, for which the median effective dose (ED50) with Mus musculus [2] worked out at 19 mg/kg. The TD50 at 0.5 h in data set [3] is 131 mg/kg. Moreover, the selectivity ratio in data set [1] was 6.9.
With `CCCCCCOc1ccc(-n2cnnc2-c2ccccc2Cl)cc1`, the ED50 in the data set on Mus musculus [2] was found to be 13.2 mg/kg. In addition, the TD50 at 0.5 h in data set [3] was 91.2 mg/kg. Also, the selectivity ratio in data set [1] is 6.9.
